Test results as given in PubChem BioAssay (NCI).
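Test compounds were applied to cells in 96-well plates for 48 hours at 5 doses. TGI denotes the concentration required for complete inhibition of growth.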

How the values were obtained:
Experiment in all cases: NCI anticancer screen, dose series, 48 h
786-0 renal = system: 786-0 renal
A498 renal = system: A498 renal
A549 NSCLC = system: A549 NSCLC
ACHN renal = system: ACHN renal
CAKI-1 renal = system: CAKI-1 renal
CCRF-CEM leukemia = system: CCRF-CEM leukemia
COLO 205 colon = system: COLO 205 colon
DLD-1 colon = system: DLD-1 colon
DMS 114 small cell lung = system: DMS 114 small cell lung
DMS 273 small cell lung = system: DMS 273 small cell lung
EKVX NSCLC = system: EKVX NSCLC
HCC-2998 colon = system: HCC-2998 colon
HCT-15 colon = system: HCT-15 colon
HL-60(TB) leukemia = system: HL-60(TB) leukemia
HOP-18 NSCLC = system: HOP-18 NSCLC
HT29 colon = system: HT29 colon
IGROV1 ovarian = system: IGROV1 ovarian
K-562 leukemia = system: K-562 leukemia
KM12 colon = system: KM12 colon
KM20L2 colon = system: KM20L2 colon
LOX IMVI melanoma = system: LOX IMVI melanoma
M14 melanoma = system: M14 melanoma
M19-MEL melanoma = system: M19-MEL melanoma
MALME-3M melanoma = system: MALME-3M melanoma
MOLT-4 leukemia = system: MOLT-4 leukemia
NCI-H226 lung = system: NCI-H226 lung
NCI-H23 lung = system: NCI-H23 lung
NCI-H460 lung = system: NCI-H460 lung
OVCAR-3 ovarian = system: OVCAR-3 ovarian
OVCAR-4 ovarian = system: OVCAR-4 ovarian
OVCAR-5 ovarian = system: OVCAR-5 ovarian
OVCAR-8 ovarian = system: OVCAR-8 ovarian
RPMI-8226 leukemia = system: RPMI-8226 leukemia
RXF 393 renal = system: RXF 393 renal
RXF-631 renal = system: RXF-631 renal
SF-268 CNS = system: SF-268 CNS
SF-295 CNS = system: SF-295 CNS
SK-MEL-2 melanoma = system: SK-MEL-2 melanoma
SK-MEL-28 melanoma = system: SK-MEL-28 melanoma
SK-MEL-5 melanoma = system: SK-MEL-5 melanoma
SK-OV-3 ovarian = system: SK-OV-3 ovarian
SN12C renal = system: SN12C renal
SNB-19 CNS = system: SNB-19 CNS
SNB-75 CNS = system: SNB-75 CNS
SNB-78 CNS = system: SNB-78 CNS
SW-620 colon = system: SW-620 colon
TK-10 renal = system: TK-10 renal
U251 CNS = system: U251 CNS
UACC-257 melanoma = system: UACC-257 melanoma
UACC-62 melanoma = system: UACC-62 melanoma
UO-31 renal = system: UO-31 renal
XF 498 CNS = system: XF 498 CNS
HCT-116 colon = system: HCT-116 colon
HOP-62 NSCLC = system: HOP-62 NSCLC
HOP-92 NSCLC = system: HOP-92 NSCLC
LXFL 529 NSCLC = system: LXFL 529 NSCLC
NCI-H522 lung = system: NCI-H522 lung
SF-539 CNS = system: SF-539 CNS
SR leukemia = system: SR leukemia

Measured: TGI

CC(=O)Nc1ccc(S(=O)(=O)N/N=C/c2cc(I)cc([N+](=O)[O-])c2O)cc1
85 µM: NCI-H23 lung
98.7 µM: SK-MEL-28 melanoma
91.6 µM: SNB-75 CNS
96.5 µM: HOP-18 NSCLC
74.6 µM: XF 498 CNS
90.9 µM: UACC-62 melanoma
85.2 µM: RXF 393 renal
not listed: HCT-116 colon | HOP-62 NSCLC | HOP-92 NSCLC | LXFL 529 NSCLC | NCI-H522 lung | SF-539 CNS | SR leukemia
> 100 µM: all other assays above

Cc1ccccc1C(C#N)/C(=N/NC(N)=S)C(=O)Nc1c(C)cccc1C (centres undefined)
not listed: A498 renal | CAKI-1 renal | DMS 273 small cell lung | HCT-15 colon | K-562 leukemia | SK-OV-3 ovarian | NCI-H522 lung | SF-539 CNS | SR leukemia
> 100 µM: all other assays above

S=c1sc2sc(=S)sc2s1
59 µM: M14 melanoma
47.7 µM: NCI-H460 lung
81.8 µM: UO-31 renal
72 µM: SF-295 CNS
78.9 µM: HT29 colon
48.2 µM: A498 renal
82.6 µM: SNB-75 CNS
26.9 µM: LXFL 529 NSCLC
39.1 µM: RXF-631 renal
57.8 µM: SF-539 CNS
23.3 µM: HL-60(TB) leukemia
40.2 µM: OVCAR-5 ovarian
49 µM: U251 CNS
75.6 µM: M19-MEL melanoma
33.9 µM: SK-OV-3 ovarian
not listed: DMS 114 small cell lung | EKVX NSCLC | NCI-H226 lung | NCI-H23 lung | OVCAR-3 ovarian | SK-MEL-28 melanoma | XF 498 CNS
> 100 µM: all other assays above
